For one assay, the target named is Kainate (KA) receptor. Kind of assay: [^3 H]kainate (KA) receptor subclass binding assay, synaptic plasma membranes. To be noted: 0.5 nM [^3 H]kainate; SPM; pH 7.4; 0-4° C., 60 min. The protocol: (§1) Synaptic plasma membranes (SPM) were prepared as previously described [Monahan, J.B. and Michel, J., "Identification and Characterization of an N-methyl-D-aspartate-specific L[^3 H]glutamate Recognition Site in Synaptic Plasma Membranes, J. Neurochem., 48, […] (1987)]. The SPM were stored at a concentration of 10-15 mg/ml in 0.32M sucrose, 0.5 mM EDTA, 1 mM MgSO4, 5 mM Tris/SO4, pH 7.4, under liquid nitrogen. The identity and purity of the subcellular fractions were confirmed by both electron microscopy and marker enzymes. Protein concentrations were determined by using a modification of the method of Lowry [Ohnishi, S.T. and Barr, J.K., "A Simplified Method of Quantitating Proteins Using the Biuret and Phenol Reagents", anal. Biochem., 86, 193-197 (1978)]. The SPM were treated identically for the [^3 H]AMPA (QUIS), [3H]kainate and sodium-dependent L-[^3 H]-glumatate binding assays. […] Beckman MP scintillation cocktail containing 7 mL/1 acetic acid was then added and the samples counted on a Beckman LS 5800 or 3801 liquid scintillation counter with automatic corrections for quenching and counting efficiency. […] Radioligand binding to the synaptic plasma membranes was analyzed using Scatchard and Hill transformations and the Ki values of the compounds determined using logit-log transformations. […]

For assay [1], the target named is [^3 H]MK-801 binding, rat SPM (synaptic plasma membranes). As to the kind of experiment: [^3 H]MK-801 Binding assay (modulation of [^3 H]MK-801 binding). As to conditions: 5.0 nM [^3 H]MK-801, L-glutamate 10.0 nM; Triton X-100 treated rat SPM; pH 7.4; 25° C., 30 min. The protocol: Modulation of [^3 H]MK-801 binding was performed using Triton X-100 (0.04% v/v) treated rat SPM that had been extensively washed. Assay incubations were at 25° C. for 30 min. and contained 5.0 nM [^3 H]MK-801, L-glutamate (10.0 nM), and various concentrations of the tested compounds in 50 mM Tris/acetate, pH 7.4. The assay was stopped by rapid filtration, using Brandel MB-48 Harvester, through Whatman GF/B filters treated with 0.05% polyethylenimine and the samples washed four times with 2.0 mL cold buffer. The radioactivity associated with the filter was determined by liquid scintillation spectrometry. Nonspecific binding was defined using 60 μM MK-801. IC50 were determined using a logit-log transformation of the binding data.

Assay [2] has as its target NMDA receptor (N-methyl-D-aspartate-specific L-[^3 H]glutamate recognition site in synaptic plasma membranes). As to the kind of experiment: NMDA-Selective Glutamate Binding Assay ([^3 H]GLU). As to the method: as §1

Structures can show the parent of a compound that is named as a salt.

As a reminder, the Ki is the equilibrium dissociation constant of an inhibitor or competing ligand from its target. A lower Ki goes with a stronger hold on the target. On to `O=C(O)c1cn2c(n1)NCCC2CP(=O)(O)O` (stereo not shown) [Example 1, 5-Phosphonomethyl-5,6,7,8-tetrahydro-imidazo [1,2-a]pyrimidine-2-carboxylic acid, ammonium salt], for which the “KA Ki” value at Kainate (KA) receptor is above 10000 nM. Further, the inhibition constant (Ki) amounted to 280 nM in assay [1] and 700 nM in assay [2] (NMDA-specific L-[^3 H]glutamate 12.5 nM, Triton X-100 treated SPM, pH 7.4, 0-4° C., 10 min).

For `O=C(O)c1cn2c(n1)NC(CP(=O)(O)O)CC2` (stereo not shown) [Example 2, 7-phosphonomethyl-5,6,7,8-tetrahydro-imidazo[1,2-a]pyrimidine-2-carboxylicacid], the “[^3 H]GLU % inhibition” value in assay [2] (@ 10 μM) was 42%.
